Key:
[1] = system: SCID mice bearing twin HEK293-CCK2i4svR and wtHEK293 tumors; assay: Biodistribution in SCID mice bearing twin HEK293-CCK2i4svR and wtHEK293 xenografts; type: in vivo
Method: Inocula containing a suspension of freshly harvested HEK293-CCK2i4svR/wtHEK293 cells (150 μL, 1.8 × 10^7/1.4 × 10^7 cells, respectively, in normal saline) were subcutaneously (sc) injected in the right and left flanks of male SCID mice (24.5 ± 2.3 g body weight, six weeks of age on arrival day, NCSR “Demokritos” Animal House Facility). Well-palpable tumors (0.42 ± 0.37/0.25 ± […], respectively) were grown at the inoculation site 3–4 weeks later, and biodistribution was conducted. On the day of biodistribution, animals were divided into groups of four and received the radioligand through the tail vein as a bolus (100 μL, containing each of: i. 78–91 kBq [^67Ga]GAS1/2/3 corresponding to 7–17 pmol GAS1/2/3; ii. 74–92 kBq [^111In]GAS1/2/3 corresponding to 20–25 pmol GAS1/2/3; iii. 730 kBq [^177Lu]Lu-GAS1/3 corresponding to 40 pmol GAS1/3, in-vehicle: saline/EtOH 9/1 v/v). Animals were euthanized at predetermined time intervals depending upon the radionuclide applied (for [^67Ga]Ga-GAS1/2/3: 1, 4 and 24 h pi; for [^111In]In-GAS1/2/3: 4 and 24 h pi–two extra groups of mice receiving gelofusine together with [^111In]In-GAS1/2 at 4 and 24 h pi were included; and for [^177Lu]Lu-GAS1/3: 4, 24, 48, 72 and 96 h pi). Mice were dissected, and blood samples, organs of interest and tumors were rapidly collected, weighted and counted in the gamma counter. Biodistribution data was calculated as the percentage of the administered dose per gram tissue (%IA/g) with the aid of suitable standards of the administered dose and the Microsoft Excel program. Results are presented as mean % IA/g values ± SD, n = 4 per time point, as determined by the PRISM^TM 6.0 GraphPad software (San Diego, CA, USA).

[2] = Radioligand stability in mice (radio-HPLC of blood and urine); type: in vivo; details: mean ± SD
Method: The formation of radiometabolites which can be detected in the blood was tested in blood samples collected 5 min post-injection (pi) of each of the radioligands [^67Ga]Ga/[^111In]In/[^177Lu]Lu-GAS1/3 and [^67Ga]Ga/[^111In]In-GAS2. For this study, in-house male Swiss albino mice (body weight: 30 ± 5 g, provided by the NCSR “Demokritos” Animal House) were used in groups of three. The animals received, through the tail vein, a 100-μL bolus containing each radioligand tested (2.5–3 nmol of the total conjugate in vehicle: saline/EtOH 9/1 v/v, corresponding to: up to 11 MBq for In-111, up to 13 MBq for Ga-67 and up to 74 MBq for Lu-177). Mice were euthanized, and blood was collected directly from the heart using a prechilled penicillin syringe and transferred in a prechilled EDTA-containing Eppendorf Protein LoBind® tube on ice (40 µL, 50 mM Na2EDTA solution). After centrifugation (10 min, 2000× g/4 °C, in a Hettich, Universal 320R, centrifuge), the blood plasma was collected, mixed with chilled MeCN in a 1/1 v/v ratio and centrifuged again (10 min, 15,000× g/4 °C). Supernatants were collected and concentrated to a small volume (≈50–100 μL) under a gentle N2-flux at 40 °C. They were then diluted with physiological saline (≈400 μL) and filtered through a Millex GV filter (0.22 μm, 13 mm Ø, Millipore, Milford, CT, USA). Aliquots of the filtrate were analyzed by radio-RP-HPLC using a Waters Symmetry Shield RP18 cartridge column (5 μm, 3.9 mm × 20 mm) eluted at a flow rate of 1.0 mL/min with the following gradient: 100% A/0% B to 55% A/45% B in 45 min; A = 0.1% aqueous TFA (v/v) and B = MeCN (system 2). The elution time (tR) of each parent radioligand was determined by coinjection of blood samples with an aliquot of the labeling solution on the HPLC column. Results were calculated as the average percentage of intact radioligand ± SD derived from three independent experiments.
Following the same injection protocol, radioligands were administered in additional groups of mice, but this time animals were euthanized 30 min pi. The urine was immediately collected from the bladder using a prechilled syringe and transferred as before in a prechilled EDTA-containing Eppendorf Protein LoBind® centrifuge tube on ice (40 µL, 50 mM Na2EDTA solution) and 0.1 mL of physiological saline. Urine proteins were precipitated by adding chilled MeCN in a 1/1 v/v ratio followed by a 10 min centrifugation step (15,000× g/4 °C). The supernatant was then collected and treated following the blood sample workup procedure. Aliquots of the Millex-GV filtrate (containing >90% of total urine activity) were analyzed by radio-HPLC, adopting the aforementioned conditions. Results were calculated as the average percentage of intact radioligand ± SD derived from three independent experiments.

SMILES: CC(C)(C)C(=O)CN1C(=O)[C@H](NC(=O)Nc2cccc(C(=O)NCCOCCOCCOCCNC(=O)[C@H](CCC(=O)O)NC(=O)CN3CCN(CC(=O)[O-])CCN(CC(=O)[O-])CCN(CC(=O)[O-])CC3)c2)CN(C2CCCCC2)c2ccccc21.[177Lu+3] (stereo in doubt) [[^177Lu]Lu-GAS1]
- Biodistribution, Blood ([1]; 4 h pi): 0.99 ± 0.20 %IA/g
- Biodistribution, CCK2i4svR(+) Tumor ([1]; 4 h pi): 8.74 ± 1.60 %IA/g
- Biodistribution, CCK2i4svR(-) Tumor ([1]; 4 h pi): 1.01 ± 0.30 %IA/g
- Biodistribution, Femur ([1]; 4 h pi): 0.28 ± 0.03 %IA/g
- Biodistribution, Heart ([1]; 4 h pi): 0.41 ± 0.07 %IA/g
- Biodistribution, Intestines ([1]; 4 h pi): 1.65 ± 0.28 %IA/g
- Biodistribution, Kidneys ([1]; 4 h pi): 3.70 ± 0.62 %IA/g
- Biodistribution, Liver ([1]; 4 h pi): 2.21 ± 0.44 %IA/g
- Biodistribution, Lungs ([1]; 4 h pi): 0.94 ± 0.15 %IA/g
- Biodistribution, Muscle ([1]; 4 h pi): 0.12 ± 0.02 %IA/g
- Biodistribution, Pancreas ([1]; 4 h pi): 0.56 ± 0.11 %IA/g
- Biodistribution, Spleen ([1]; 4 h pi): 0.59 ± 0.07 %IA/g
- Biodistribution, Stomach ([1]; 4 h pi): 0.37 ± 0.05 %IA/g
- Biodistribution, Blood ([1]; 24 h pi): 0.06 ± 0.00 %IA/g
- Biodistribution, CCK2i4svR(+) Tumor ([1]; 24 h pi): 2.09 ± 0.50 %IA/g
- Biodistribution, CCK2i4svR(-) Tumor ([1]; 24 h pi): 0.29 ± 0.20 %IA/g
- Biodistribution, Femur ([1]; 24 h pi): 0.11 ± 0.01 %IA/g
- Biodistribution, Heart ([1]; 24 h pi): 0.12 ± 0.00 %IA/g
- Biodistribution, Intestines ([1]; 24 h pi): 0.32 ± 0.07 %IA/g
- Biodistribution, Kidneys ([1]; 24 h pi): 1.05 ± 0.12 %IA/g
- Biodistribution, Liver ([1]; 24 h pi): 0.51 ± 0.07 %IA/g
- Biodistribution, Lungs ([1]; 24 h pi): 0.34 ± 0.03 %IA/g
- Biodistribution, Muscle ([1]; 24 h pi): 0.04 ± 0.00 %IA/g
- Biodistribution, Pancreas ([1]; 24 h pi): 0.10 ± 0.01 %IA/g
- Biodistribution, Spleen ([1]; 24 h pi): 0.32 ± 0.01 %IA/g
- Biodistribution, Stomach ([1]; 24 h pi): 0.14 ± 0.03 %IA/g
- Biodistribution, Blood ([1]; 48 h pi): 0.04 ± 0.01 %IA/g
- Biodistribution, CCK2i4svR(+) Tumor ([1]; 48 h pi): 0.97 ± 0.20 %IA/g
- Biodistribution, CCK2i4svR(-) Tumor ([1]; 48 h pi): 0.17 ± 0.02 %IA/g
- Biodistribution, Femur ([1]; 48 h pi): 0.09 ± 0.01 %IA/g
- Biodistribution, Heart ([1]; 48 h pi): 0.07 ± 0.01 %IA/g
- Biodistribution, Intestines ([1]; 48 h pi): 0.08 ± 0.01 %IA/g
- Biodistribution, Kidneys ([1]; 48 h pi): 0.38 ± 0.07 %IA/g
- Biodistribution, Liver ([1]; 48 h pi): 0.32 ± 0.04 %IA/g
- Biodistribution, Lungs ([1]; 48 h pi): 0.29 ± 0.04 %IA/g
- Biodistribution, Muscle ([1]; 48 h pi): 0.03 ± 0.00 %IA/g
- Biodistribution, Pancreas ([1]; 48 h pi): 0.05 ± 0.01 %IA/g
- Biodistribution, Spleen ([1]; 48 h pi): 0.26 ± 0.06 %IA/g
- Biodistribution, Stomach ([1]; 48 h pi): 0.08 ± 0.01 %IA/g
- Biodistribution, Blood ([1]; 72 h pi): 0.04 ± 0.00 %IA/g
- Biodistribution, CCK2i4svR(+) Tumor ([1]; 72 h pi): 0.35 ± 0.23 %IA/g
- Biodistribution, CCK2i4svR(-) Tumor ([1]; 72 h pi): 0.18 ± 0.05 %IA/g
- Biodistribution, Femur ([1]; 72 h pi): 0.06 ± 0.00 %IA/g
- Biodistribution, Heart ([1]; 72 h pi): 0.05 ± 0.01 %IA/g
- Biodistribution, Intestines ([1]; 72 h pi): 0.06 ± 0.02 %IA/g
- Biodistribution, Kidneys ([1]; 72 h pi): 0.14 ± 0.04 %IA/g
- Biodistribution, Liver ([1]; 72 h pi): 0.23 ± 0.02 %IA/g
- Biodistribution, Lungs ([1]; 72 h pi): 0.21 ± 0.03 %IA/g
- Biodistribution, Muscle ([1]; 72 h pi): 0.02 ± 0.00 %IA/g
- Biodistribution, Pancreas ([1]; 72 h pi): 0.03 ± 0.00 %IA/g
- Biodistribution, Spleen ([1]; 72 h pi): 0.51 ± 0.71 %IA/g
- Biodistribution, Stomach ([1]; 72 h pi): 0.05 ± 0.01 %IA/g
- Biodistribution, Blood ([1]; 96 h pi): 0.04 ± 0.00 %IA/g
- Biodistribution, CCK2i4svR(+) Tumor ([1]; 96 h pi): 0.56 ± 0.25 %IA/g
- Biodistribution, CCK2i4svR(-) Tumor ([1]; 96 h pi): 0.11 ± 0.04 %IA/g
- Biodistribution, Femur ([1]; 96 h pi): 0.05 ± 0.01 %IA/g
- Biodistribution, Heart ([1]; 96 h pi): 0.04 ± 0.00 %IA/g
- Biodistribution, Intestines ([1]; 96 h pi): 0.08 ± 0.05 %IA/g
- Biodistribution, Kidneys ([1]; 96 h pi): 0.10 ± 0.04 %IA/g
- Biodistribution, Liver ([1]; 96 h pi): 0.19 ± 0.02 %IA/g
- Biodistribution, Lungs ([1]; 96 h pi): 0.17 ± 0.02 %IA/g
- Biodistribution, Muscle ([1]; 96 h pi): 0.02 ± 0.01 %IA/g
- Biodistribution, Pancreas ([1]; 96 h pi): 0.03 ± 0.01 %IA/g
- Biodistribution, Spleen ([1]; 96 h pi): 0.14 ± 0.02 %IA/g
- Biodistribution, Stomach ([1]; 96 h pi): 0.05 ± 0.01 %IA/g
- Background clearance / excretion route ([1]; mouse, in vivo): rapid background clearance predominantly via the kidneys
- Intact radioligand in blood ([2]; mice blood collected 5 min pi): 81.1 ± 8.2 (3) %
- Intact radioligand in urine ([2]; mice urine collected 30 min pi): 79.2 ± 10.3 (3) %
